Target: α7 nAChRs (Homo sapiens (Human), UniProt P36544)
Test: not given
Type: cell-based
Settings: compounds at 100 μM, relative to 1 mM ACh
Method: (§1) Compounds of the invention were tested for effects on the function of human α4β2, α3β4 and α7 nicotinic acetylcholine receptors (nAChRs) expressed heterologously in Xenopus oocytes. […] Expression in oocytes was obtained as follows: pCI (Promega, UK) plasmid containing human α4, β2, β4 or α7 complementary DNA were injected as previously described (Moroni et al., 2006). To express (α4)3(β2)2 nACh receptors, a mixture of 10α4:1β2 cDNAs was injected into the nucleus of oocytes, whereas for (α4)2(β2)3 receptors the cDNA ratio injected was 1α4:10β2.
(§2) Functional studies: Recordings were performed manually using a Geneclamp amplifier (Molecular Devices, USA) or using an automated HiClamp system. In both cases the oocytes were impaled with two electrodes filled with 3 M KCl and the cells were held at −60 mV throughout the experiments.
(§3) Oocyte isolation and two-electrode voltage-clamp recordings on oocytes were carried out as previously described (Moroni et al., 2006; Carbone et al., 2009). […] A minimum interval of 5 min was allowed between agonist applications to ensure reproducible recordings. Oocytes were exposed to increasing concentrations of the compounds until no further increases in the response amplitude were obtained. This concentration was taken as the concentration that causes maximal responses on the receptors tested. The data summarised in Tables 1-4 were obtained from at least 5 experiments carried out on oocytes obtained from at least three different donors.

Chain of α7 nAChRs (P36544 23-502): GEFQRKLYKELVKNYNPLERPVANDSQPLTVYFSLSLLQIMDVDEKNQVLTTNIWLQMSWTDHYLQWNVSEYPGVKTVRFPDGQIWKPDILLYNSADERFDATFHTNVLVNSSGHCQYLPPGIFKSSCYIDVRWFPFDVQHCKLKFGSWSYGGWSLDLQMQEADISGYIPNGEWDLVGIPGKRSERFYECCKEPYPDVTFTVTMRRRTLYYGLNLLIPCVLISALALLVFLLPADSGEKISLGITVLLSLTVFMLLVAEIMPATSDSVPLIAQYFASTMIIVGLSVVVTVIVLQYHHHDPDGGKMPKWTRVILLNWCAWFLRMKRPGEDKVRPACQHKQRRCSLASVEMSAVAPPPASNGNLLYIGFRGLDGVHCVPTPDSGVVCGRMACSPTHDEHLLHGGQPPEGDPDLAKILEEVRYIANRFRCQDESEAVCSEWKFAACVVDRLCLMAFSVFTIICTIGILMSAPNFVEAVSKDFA

SMILES	Relative efficacy (ACh)
Cc1ccc(-c2cc3n(c(=O)c2)CC2CNC[C@@H]3C2)cc1 (single isomer, unassigned; (+)) [Compound 73, (+)4-p-Tolylcytisine]	0.0027 ± 0.0021
O=c1cc(-c2ccncc2)cc2n1CC1CNC[C@@H]2C1 (single isomer, unassigned; (-)) [Compound 103, (−)4-(4-Pyridinyl)cytisine]	0.07 ± 0.009
O=c1cc(-c2ccccn2)cc2n1CC1CNC[C@@H]2C1 (single isomer, unassigned; (-)) [Compound 101, (−)4-(2-Pyridinyl)cytisine]	0.16 ± 0.03
Cc1cc2n(c(=O)c1)CC1CNC[C@@H]2C1.Cl (single isomer, unassigned; (-)) [Compound 110, (−)4-Methylcytisine]	0.0017 ± 0.0024
Cl.O=c1cc(CO)cc2n1CC1CNC[C@@H]2C1 (single isomer, unassigned; (-)) [Compound 122, (−)4-(Hydroxymethyl)cytisine]	0.0067 ± 0.0015
c1cnc2cc3c(cc2n1)[C@@H]1CNC[C@H]3C1 [Varenicline, reference compound]	0.96 ± 0.03
O=c1cc(Cl)cc2n1CC1CNC[C@@H]2C1 (single isomer, unassigned; (-)) [Compound 60, (−)4-Chlorocytisine]	0.38 ± 0.09
Cl.O=c1cc(-c2c(F)c(F)c(F)c(F)c2F)cc2n1CC1CNC[C@@H]2C1 (single isomer, unassigned; (-)) [Compound 75, (−)4-(Perfluorophenyl)cytisine]	0.0007 ± 0.0006

Target: α3β4 nAChRs (Homo sapiens (Human), UniProt P30926+P32297)
Test: Maximal gating efficacy on α3β4 nAChRs in Xenopus oocytes, two electrode voltage clamp
Type: cell-based
Settings: maximal current relative to 1 mM ACh
Method: as §1, §2, §3
Maximal gating efficacy of the compounds on α3β4 nAChRs: The concentration of the compounds causing maximal activation of α3β4 nAChRs expressed heterologously in Xenopus oocytes was determined using two electrode voltage clamping.

Chain of α3β4 nAChRs (P32297 32-505): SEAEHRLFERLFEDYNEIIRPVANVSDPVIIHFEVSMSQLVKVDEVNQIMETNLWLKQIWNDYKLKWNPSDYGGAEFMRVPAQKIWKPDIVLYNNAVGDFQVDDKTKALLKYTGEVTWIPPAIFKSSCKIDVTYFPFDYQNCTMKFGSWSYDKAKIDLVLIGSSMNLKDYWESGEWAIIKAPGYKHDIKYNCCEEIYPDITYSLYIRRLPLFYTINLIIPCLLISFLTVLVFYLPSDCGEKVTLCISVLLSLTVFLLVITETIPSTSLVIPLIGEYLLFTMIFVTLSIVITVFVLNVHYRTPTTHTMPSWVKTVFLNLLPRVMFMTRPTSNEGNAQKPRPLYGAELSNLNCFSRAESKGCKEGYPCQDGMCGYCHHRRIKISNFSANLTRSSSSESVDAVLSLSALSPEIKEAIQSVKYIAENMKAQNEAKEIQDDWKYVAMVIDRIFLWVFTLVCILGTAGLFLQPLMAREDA
Chain of α3β4 nAChRs (P30926 22-498): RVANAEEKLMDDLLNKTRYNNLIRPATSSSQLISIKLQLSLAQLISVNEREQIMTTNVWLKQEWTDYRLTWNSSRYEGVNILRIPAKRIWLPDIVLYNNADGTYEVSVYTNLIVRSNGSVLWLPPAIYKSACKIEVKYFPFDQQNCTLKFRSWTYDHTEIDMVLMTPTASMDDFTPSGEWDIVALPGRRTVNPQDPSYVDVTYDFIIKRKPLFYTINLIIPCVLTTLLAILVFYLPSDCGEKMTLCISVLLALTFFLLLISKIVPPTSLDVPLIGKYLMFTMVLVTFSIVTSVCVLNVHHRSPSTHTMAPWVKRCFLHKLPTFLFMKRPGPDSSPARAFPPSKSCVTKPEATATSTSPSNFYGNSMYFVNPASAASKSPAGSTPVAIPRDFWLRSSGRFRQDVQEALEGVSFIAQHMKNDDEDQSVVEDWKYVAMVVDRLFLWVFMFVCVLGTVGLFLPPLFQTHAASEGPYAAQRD

SMILES	Relative efficacy (ACh)
Cc1ccc(-c2cc3n(c(=O)c2)CC2CNC[C@@H]3C2)cc1 (single isomer, unassigned; (+)) [Compound 73, (+)4-p-Tolylcytisine]	0.076 ± 0.093
O=c1cc(-c2ccncc2)cc2n1CC1CNC[C@@H]2C1 (single isomer, unassigned; (-)) [Compound 103, (−)4-(4-Pyridinyl)cytisine]	0.016 ± 0.010
O=c1cc(-c2ccccn2)cc2n1CC1CNC[C@@H]2C1 (single isomer, unassigned; (-)) [Compound 101, (−)4-(2-Pyridinyl)cytisine]	0.066 ± 0.056
Cc1cc2n(c(=O)c1)CC1CNC[C@@H]2C1.Cl (single isomer, unassigned; (-)) [Compound 110, (−)4-Methylcytisine]	0.0708 ± 0.059
Cl.O=c1cc(CO)cc2n1CC1CNC[C@@H]2C1 (single isomer, unassigned; (-)) [Compound 122, (−)4-(Hydroxymethyl)cytisine]	0.015 ± 0.020
c1cnc2cc3c(cc2n1)[C@@H]1CNC[C@H]3C1 [Varenicline, reference compound]	0.51 ± 0.09
O=c1cc(Cl)cc2n1CC1CNC[C@@H]2C1 (single isomer, unassigned; (-)) [Compound 60, (−)4-Chlorocytisine]	0.133 ± 0.017
Cl.O=c1cc(-c2c(F)c(F)c(F)c(F)c2F)cc2n1CC1CNC[C@@H]2C1 (single isomer, unassigned; (-)) [Compound 75, (−)4-(Perfluorophenyl)cytisine]	0.120 ± 0.039

Target: α4β2 nAChR (Homo sapiens (Human), UniProt P17787+P43681)
Test: not given
Type: binding
Settings: ratio of Ki values
Method: HEK 293 cells were grown in Dulbecco's modified Eagle medium supplemented with 10% fetal bovine serum, 1% L-Glutamine, 100 units/ml penicillin G, and 100 μg/streptomycin in a humidified atmosphere containing 10% CO2. The cDNAs encoding α3 and β4 or α4 and β2 (were transfected into the HEK 293 cells at 30% confluency). The cell transfections were carried out in 100 mm Petri dishes using 30 μL of JetPEI™ (Polypus, France) (1 mg/ml, pH 7.2) and 3 μg of each cDNA. After 24 h transfection, the cells were collected, washed with PBS by centrifugation, and used for binding analysis.
[^3H]-epibatidine saturation binding experiments to HEK transfected α3β4 or α4β2 receptors were performed by means of overnight incubation at 4° C. at concentrations ranging from 0.005 to 1 nM in a buffer containing 50 mM Tris-HCl, pH 7, 150 mM NaCl, 5 mM KCl, 1 mM MgCl2, 2.5 mM CaCl2 and 2 mg/ml BSA, in the presence (aspecific binding) or absence (total binding) of 100 nM cold epibatidine. Specific ligand binding was defined as total binding minus the binding in the presence of 100 nM cold epibatidine.
After incubation, the membranes of HEK cells transfected with α4β2* or α3β4 subtypes were washed by filtration on GFC filters with ice-cold PBS. The GFC filters were pre-soaked in polyethylenimine and filtered through an harvester apparatus. [^3H]-epibatidine binding was determined by means of liquid scintillation counting in a beta counter.
The ligand binding data were analyzed by means of nonlinear regression using Prism version 5 (GraphPad Software, Inc., La Jolla, Calif.). The Ki values were calculated from the experimental IC50 values using the Cheng-Prusoff equation for a single population of competitive sites: Ki=IC50/[1+(L/Kd)], where L is the concentration of radioligand used in each experiment and the Kd values were determined by saturation binding experiment. All of the assays were performed in duplicate and repeated at least two-three times.

Chain of α4β2 nAChR (P43681 29-627 limits assumed): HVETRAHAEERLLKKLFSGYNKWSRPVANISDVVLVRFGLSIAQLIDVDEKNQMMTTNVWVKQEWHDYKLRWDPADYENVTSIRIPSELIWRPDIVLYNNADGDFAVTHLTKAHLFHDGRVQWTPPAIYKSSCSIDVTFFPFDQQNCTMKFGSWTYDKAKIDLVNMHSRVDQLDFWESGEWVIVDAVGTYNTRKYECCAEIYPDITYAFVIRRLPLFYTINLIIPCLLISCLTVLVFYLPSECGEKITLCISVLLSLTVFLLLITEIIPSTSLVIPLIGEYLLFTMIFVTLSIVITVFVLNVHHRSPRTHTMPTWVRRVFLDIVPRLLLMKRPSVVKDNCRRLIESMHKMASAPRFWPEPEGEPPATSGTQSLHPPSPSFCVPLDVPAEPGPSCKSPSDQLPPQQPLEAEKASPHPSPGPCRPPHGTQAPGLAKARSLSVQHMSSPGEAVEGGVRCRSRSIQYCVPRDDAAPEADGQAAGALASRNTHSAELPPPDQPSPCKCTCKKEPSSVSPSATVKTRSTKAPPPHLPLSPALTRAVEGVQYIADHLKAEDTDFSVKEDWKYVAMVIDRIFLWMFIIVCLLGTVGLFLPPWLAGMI
Chain of α4β2 nAChR (P17787 26-502 limits assumed): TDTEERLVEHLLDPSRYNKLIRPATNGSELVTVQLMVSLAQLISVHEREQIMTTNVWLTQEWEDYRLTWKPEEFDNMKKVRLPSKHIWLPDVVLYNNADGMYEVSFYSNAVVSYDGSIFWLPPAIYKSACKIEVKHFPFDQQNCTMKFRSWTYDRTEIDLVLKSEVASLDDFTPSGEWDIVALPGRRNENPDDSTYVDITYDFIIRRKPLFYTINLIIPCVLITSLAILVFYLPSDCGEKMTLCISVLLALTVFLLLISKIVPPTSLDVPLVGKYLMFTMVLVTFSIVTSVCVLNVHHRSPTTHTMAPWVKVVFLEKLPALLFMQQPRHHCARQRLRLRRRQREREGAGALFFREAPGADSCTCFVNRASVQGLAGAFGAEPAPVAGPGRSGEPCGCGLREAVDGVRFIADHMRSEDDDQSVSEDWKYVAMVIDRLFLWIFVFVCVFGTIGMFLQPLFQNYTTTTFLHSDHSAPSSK

SMILES	Ratio α3β4/α4β2
Cc1ccc(-c2cc3n(c(=O)c2)CC2CNC[C@@H]3C2)cc1 (single isomer, unassigned; (+)) [Compound 73, (+)4-p-Tolylcytisine]	161.7
O=c1cc(-c2ccncc2)cc2n1CC1CNC[C@@H]2C1 (single isomer, unassigned; (-)) [Compound 103, (−)4-(4-Pyridinyl)cytisine]	859.6
O=c1cc(-c2ccccn2)cc2n1CC1CNC[C@@H]2C1 (single isomer, unassigned; (-)) [Compound 101, (−)4-(2-Pyridinyl)cytisine]	1575.0
Cc1cc2n(c(=O)c1)CC1CNC[C@@H]2C1.Cl (single isomer, unassigned; (-)) [Compound 110, (−)4-Methylcytisine]	864.3
Cl.O=c1cc(CO)cc2n1CC1CNC[C@@H]2C1 (single isomer, unassigned; (-)) [Compound 122, (−)4-(Hydroxymethyl)cytisine]	73.0
O=c1cc(Cl)cc2n1CC1CNC[C@@H]2C1 (single isomer, unassigned; (-)) [Compound 60, (−)4-Chlorocytisine]	328.6
Cl.O=c1cc(-c2c(F)c(F)c(F)c(F)c2F)cc2n1CC1CNC[C@@H]2C1 (single isomer, unassigned; (-)) [Compound 75, (−)4-(Perfluorophenyl)cytisine]	8.1

Target: (α4)3(β2)2 nAChRs (Homo sapiens (Human), UniProt P17787+P43681)
Test: Maximal gating efficacy on (α4)3(β2)2 nAChRs in Xenopus oocytes, two electrode voltage clamp
Type: cell-based
Settings: not given
Method: as §1, §2, §3
Maximal gating efficacy of the compounds: The concentration of the compounds of the invention causing maximal activation of the (α4)3(β2)2 nAChRs expressed heterologously in Xenopus oocytes was determined using two electrode voltage clamping.

Chain of (α4)3(β2)2 nAChRs (P43681 29-627): as the sequence (P43681 29-627 limits assumed) above
Chain of (α4)3(β2)2 nAChRs (P17787 26-502): as the sequence (P17787 26-502 limits assumed) above

SMILES	Relative efficacy (ACh)
Cc1ccc(-c2cc3n(c(=O)c2)CC2CNC[C@@H]3C2)cc1 (single isomer, unassigned; (+)) [Compound 73, (+)4-p-Tolylcytisine]	0.017 ± 0.019

Same assay, conditions: (α4)3(β2)2, low sensitivity stoichiometry; maximal current relative to 1 mM ACh

SMILES	Relative efficacy (ACh)
O=c1cc(-c2ccncc2)cc2n1CC1CNC[C@@H]2C1 (single isomer, unassigned; (-)) [Compound 103, (−)4-(4-Pyridinyl)cytisine]	0.023 ± 0.006
O=c1cc(-c2ccccn2)cc2n1CC1CNC[C@@H]2C1 (single isomer, unassigned; (-)) [Compound 101, (−)4-(2-Pyridinyl)cytisine]	0.009 ± 0.008
Cc1cc2n(c(=O)c1)CC1CNC[C@@H]2C1.Cl (single isomer, unassigned; (-)) [Compound 110, (−)4-Methylcytisine]	0.014 ± 0.007
Cl.O=c1cc(CO)cc2n1CC1CNC[C@@H]2C1 (single isomer, unassigned; (-)) [Compound 122, (−)4-(Hydroxymethyl)cytisine]	0.058 ± 0.057
c1cnc2cc3c(cc2n1)[C@@H]1CNC[C@H]3C1 [Varenicline, reference compound]	0.40 ± 0.09
O=c1cc(Cl)cc2n1CC1CNC[C@@H]2C1 (single isomer, unassigned; (-)) [Compound 60, (−)4-Chlorocytisine]	0.110 ± 0.08
Cl.O=c1cc(-c2c(F)c(F)c(F)c(F)c2F)cc2n1CC1CNC[C@@H]2C1 (single isomer, unassigned; (-)) [Compound 75, (−)4-(Perfluorophenyl)cytisine]	0.011 ± 0.010

Target: (α4)2(β2)3 nAChRs (Homo sapiens (Human), UniProt P17787+P43681)
Test: Maximal gating efficacy on (α4)2(β2)3 nAChRs in Xenopus oocytes, two electrode voltage clamp
Type: cell-based
Settings: not given
Method: as §1, §2, §3
Maximal gating efficacy of compounds on (α4)2(β2)3 receptors (high sensitivity receptors): The concentration of the compounds causing maximal activation of the (α4)2(β2)3 nAChRs expressed heterologously in Xenopus oocytes was determined using two electrode voltage clamping.

Chain of (α4)2(β2)3 nAChRs (P43681 29-627): as the sequence (P43681 29-627 limits assumed) above
Chain of (α4)2(β2)3 nAChRs (P17787 26-502): as the sequence (P17787 26-502 limits assumed) above

SMILES	Relative efficacy (ACh)
Cc1ccc(-c2cc3n(c(=O)c2)CC2CNC[C@@H]3C2)cc1 (single isomer, unassigned; (+)) [Compound 73, (+)4-p-Tolylcytisine]	0.030 ± 0.013

Same assay, conditions: (α4)2(β2)3, high sensitivity receptors; maximal current relative to 1 mM ACh

SMILES	Relative efficacy (ACh)
O=c1cc(-c2ccncc2)cc2n1CC1CNC[C@@H]2C1 (single isomer, unassigned; (-)) [Compound 103, (−)4-(4-Pyridinyl)cytisine]	0.0067 ± 0.0006
O=c1cc(-c2ccccn2)cc2n1CC1CNC[C@@H]2C1 (single isomer, unassigned; (-)) [Compound 101, (−)4-(2-Pyridinyl)cytisine]	0.0001 ± 0.00008
Cc1cc2n(c(=O)c1)CC1CNC[C@@H]2C1.Cl (single isomer, unassigned; (-)) [Compound 110, (−)4-Methylcytisine]	0.041 ± 0.004
Cl.O=c1cc(CO)cc2n1CC1CNC[C@@H]2C1 (single isomer, unassigned; (-)) [Compound 122, (−)4-(Hydroxymethyl)cytisine]	0.025 ± 0.000
c1cnc2cc3c(cc2n1)[C@@H]1CNC[C@H]3C1 [Varenicline, reference compound]	0.14 ± 0.03
O=c1cc(Cl)cc2n1CC1CNC[C@@H]2C1 (single isomer, unassigned; (-)) [Compound 60, (−)4-Chlorocytisine]	0.01 ± 0.007
Cl.O=c1cc(-c2c(F)c(F)c(F)c(F)c2F)cc2n1CC1CNC[C@@H]2C1 (single isomer, unassigned; (-)) [Compound 75, (−)4-(Perfluorophenyl)cytisine]	0.050 ± 0.071

Source: patent publication US11667638B2, “4-substitued cytisine analogues” (The University of Bristol, priority 2016, dated 2023)
